Numbers after ± are expanded uncertainties.
Experiments:
[1] = 101 kPa, Liquid
[2] = xn = mol fraction of the nth substance listed; conditions: 101 kPa, Liquid, x1 = 1

CCOS(=O)(=O)[O-].CCn1cc[n+](C)c1 [1-ethyl-3-methylimidazolium ethyl sulfate]
[1]
Conditions	mass density [kg/m3]	viscosity [mPa·s]
278.15 K	1251.12 ± 3.3	308 ± 46
288.15 K	1244.13 ± 3.3	166 ± 17
298.15 K	1237.37 ± 3.2	95 ± 6
308.15 K	1230.61 ± 3.2	62 ± 4
318.15 K	1223.9 ± 3.1	41 ± 2
328.15 K	1217.23 ± 3	30 ± 2
338.15 K	1210.6 ± 3	21 ± 2
348.15 K	1204.01 ± 2.9	17 ± 2

CCn1cc[n+](C)c1.O=C([O-])C(F)(F)F [1-ethyl-3-methylimidazolium trifluoroacetate]
[1]
Conditions	mass density [kg/m3]	viscosity [mPa·s]
278.15 K	1306.89 ± 12	78 ± 6
288.15 K	1298.81 ± 11	48 ± 3
298.15 K	1290.8 ± 11	32 ± 2
308.15 K	1282.85 ± 11	23 ± 2
318.15 K	1274.95 ± 11	17 ± 2
328.15 K	1267.12 ± 11	13 ± 2
338.15 K	1259.35 ± 11	10 ± 2
348.15 K	1251.63 ± 10	9 ± 2

CCn1cc[n+](C)c1.O=S(=O)([O-])C(F)(F)F [1-ethyl-3-methylimidazolium trifluoromethanesulfonate]
[1]
Conditions	mass density [kg/m3]	viscosity [mPa·s]
278.15 K	1400.52 ± 14	96 ± 7
288.15 K	1392.04 ± 13	61 ± 4
298.15 K	1383.6 ± 13	41 ± 2
308.15 K	1375.22 ± 13	29 ± 2
318.15 K	1366.9 ± 13	21 ± 2
328.15 K	1358.63 ± 13	16 ± 2
338.15 K	1350.43 ± 12	13 ± 2
348.15 K	1342.3 ± 12	11 ± 2

O [water] + CCOS(=O)(=O)[O-].CCn1cc[n+](C)c1
[2]
Conditions	mass density [kg/m3]
278.15 K	999.99 ± 0.54
308.15 K	994.06 ± 0.58
328.15 K	985.71 ± 0.63
338.15 K	980.56 ± 0.67
348.15 K	974.84 ± 0.7

O [water] + CCn1cc[n+](C)c1.O=C([O-])C(F)(F)F
[2]
Conditions	mass density [kg/m3]
278.15 K	999.99 ± 0.54
308.15 K	994.06 ± 0.58
328.15 K	985.71 ± 0.63
338.15 K	980.56 ± 0.67
348.15 K	974.84 ± 0.7

O [water] + CCn1cc[n+](C)c1.O=S(=O)([O-])C(F)(F)F
[2]
Conditions	mass density [kg/m3]
278.15 K	999.99 ± 0.54
308.15 K	994.06 ± 0.58
328.15 K	985.71 ± 0.63
338.15 K	980.56 ± 0.67
348.15 K	974.84 ± 0.7

Source: the NIST ThermoML archive (doi:10.1021/je0602824)
